From PubChem BioAssay (NCI)
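Five compound concentrations were applied to cells in 96-well plates for 48 hours; endpoints were derived by simple linear interpolation of the resulting dose-response curve. The concentration for 50% growth inhibition is given as GI50. Definition used: TGI = concentration required for complete inhibition of growth.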

How the values were obtained:
Assay in all cases: NCI tumour cell line growth inhibition, 48 h
786-0 renal = test system: 786-0 renal
DU-145 prostate = test system: DU-145 prostate
EKVX NSCLC = test system: EKVX NSCLC
LOX IMVI melanoma = test system: LOX IMVI melanoma
RXF 393 renal = test system: RXF 393 renal
SF-295 CNS = test system: SF-295 CNS
SK-OV-3 ovarian = test system: SK-OV-3 ovarian
SNB-19 CNS = test system: SNB-19 CNS
SW-620 colon = test system: SW-620 colon
CCRF-CEM leukemia = test system: CCRF-CEM leukemia

| SMILES | GI50 (786-0 renal) | TGI (786-0 renal) | GI50 (DU-145 prostate) | TGI (DU-145 prostate) | GI50 (EKVX NSCLC) | TGI (EKVX NSCLC) | GI50 (LOX IMVI melanoma) | TGI (LOX IMVI melanoma) | GI50 (RXF 393 renal) | TGI (RXF 393 renal) | GI50 (SF-295 CNS) | TGI (SF-295 CNS) | GI50 (SK-OV-3 ovarian) | TGI (SK-OV-3 ovarian) | GI50 (SNB-19 CNS) | TGI (SNB-19 CNS) | GI50 (SW-620 colon) | TGI (SW-620 colon) | TGI (CCRF-CEM leukemia) | GI50 (CCRF-CEM leukemia) |
| --- | --- | --- | --- | --- | --- | --- | --- | --- | --- | --- | --- | --- | --- | --- | --- | --- | --- | --- | --- | --- |
| N#CCCCCCn1c2ccccc2c2c3c(c4c5ccccc5[nH]c4c21)C(=O)N(O)C3=O | 1.64 µM | 3.23 µM | 1.06 µM | 12.2 µM | 1.77 µM | 5.63 µM | 0.24 µM | 1.44 µM | 1.7 µM | 4.69 µM | 2.44 µM | 6.95 µM | 2.55 µM | 19.4 µM | 0.959 µM | > 100 µM | 1.01 µM | 34.8 µM | – | – |
| O=[P+](O)c1cc2c3ccccc3ccc2c2ccccc12 | – | > 100 µM | – | – | – | > 100 µM | – | > 100 µM | – | > 100 µM | – | > 100 µM | – | > 100 µM | – | > 100 µM | – | > 100 µM | > 100 µM | – |
| COC(=O)[C@@H](C)C[C@H](Cc1ccccc1)NC(=O)c1csc([C@@H](C[C@H](C(C)C)N(C)C(=O)[C@@H](NC(=O)CN(C)C)C2CC2)OC(C)=O)n1 | 0.0382 µM | > 16.5 µM | 0.0169 µM | – | 0.208 µM | > 16.5 µM | 0.0301 µM | > 16.5 µM | – | – | 0.0168 µM | 0.329 µM | 0.434 µM | > 16.5 µM | 0.0862 µM | > 16.5 µM | 0.0137 µM | > 16.5 µM | > 3.28 µM | 0.0154 µM |
| C/C(=N/OCCC(=O)O)C1CC1 | – | > 100 µM | – | – | – | > 100 µM | – | > 100 µM | – | > 100 µM | – | > 100 µM | – | > 100 µM | – | > 100 µM | – | > 100 µM | > 100 µM | – |
| Nc1ccc(C(=O)N/C(=C\c2ccc3c(c2)OCO3)c2nc3ccc4c(c3[nH]2)C(=O)c2ccccc2C4=O)cc1 | – | 72.2 µM | – | – | – | > 100 µM | – | > 100 µM | – | 42.4 µM | – | > 100 µM | – | 79.7 µM | – | > 100 µM | – | > 100 µM | 92.6 µM | – |
| CCN(CC)Cc1cc(Nc2c3ccc(Cl)cc3nc3c(C)cccc23)ccc1O | 1.37 µM | 2.67 µM | 2.3 µM | 6.99 µM | 1.86 µM | 3.98 µM | 1.29 µM | 2.61 µM | 1.3 µM | 2.63 µM | 1.78 µM | 3.34 µM | 1.78 µM | 3.33 µM | 1.45 µM | 3.29 µM | 1.06 µM | 2.53 µM | – | – |
| O=C1NC(=Nc2ccccc2Cl)SC1C(=O)Nc1ccc([N+](=O)[O-])cc1[N+](=O)[O-] (stereo not given) | – | > 100 µM | – | – | – | > 100 µM | – | – | – | > 100 µM | – | > 100 µM | – | > 100 µM | – | > 100 µM | – | > 100 µM | > 100 µM | – |
| COc1cc2ccc(C(=O)O)cc2cc1OC | – | > 100 µM | – | – | – | > 100 µM | – | > 100 µM | – | > 100 µM | – | > 100 µM | – | > 100 µM | – | > 100 µM | – | > 100 µM | > 100 µM | – |
| CC(C)C(NCc1c2ccccc2nc2ccccc12)C(=O)O (stereo not given) | – | > 100 µM | – | – | – | > 100 µM | – | > 100 µM | – | > 100 µM | – | > 100 µM | – | > 100 µM | – | – | – | > 100 µM | 88.3 µM | – |
| O=C1/C(=C/c2ccccc2)CN(C(=O)Oc2ccccc2)C/C1=C\c1ccccc1 | – | 49.1 µM | – | – | – | > 100 µM | – | 29.9 µM | – | 31.4 µM | – | 34.1 µM | – | – | – | 40.9 µM | – | > 100 µM | 23.9 µM | – |
| CCCN(CCC)c1c([N+](=O)[O-])cc(C(N)=O)cc1[N+](=O)[O-] | – | > 100 µM | – | – | – | > 100 µM | – | – | – | – | – | > 100 µM | – | > 100 µM | – | – | – | – | > 100 µM | – |
| CCC1C(=O)OCc2c1cc1n(c2=O)Cc2ccccc2-1 (stereo not given) | – | > 100 µM | – | – | – | > 100 µM | – | > 100 µM | – | > 100 µM | – | > 100 µM | – | – | – | > 100 µM | – | > 100 µM | > 100 µM | – |
| COc1ccccc1NC(=O)NS(=O)(=O)c1ccccc1 | – | > 100 µM | – | – | – | > 100 µM | – | > 100 µM | – | 98.2 µM | – | > 100 µM | – | – | – | > 100 µM | – | > 100 µM | – | – |
| c1cc[c]([Sn]([O]c2cccc3cccnc23)([c]2ccccc2)[c]2ccccc2)cc1 | 0.015 µM | 0.029 µM | – | – | 0.0416 µM | 0.17 µM | 0.0132 µM | 0.0261 µM | 0.0154 µM | 0.0333 µM | 0.0306 µM | 0.0761 µM | 0.0192 µM | 0.038 µM | 0.04 µM | 0.127 µM | 0.0101 µM | 0.0217 µM | 0.11 µM | 0.0115 µM |
| CC(C)=CCCC1(C)C=Cc2c(ccc3c2[nH]c2cc(O)c(C)cc23)O1 (stereo not given) | 4.27 µM | 7.87 µM | – | – | – | – | 4.53 µM | 8.19 µM | 5.27 µM | 10.1 µM | – | – | – | > 2.5 µM | > 25 µM | > 25 µM | 4.68 µM | 9.49 µM | 15.2 µM | 4.97 µM |
| COC(=O)C1=C(c2cc(OC)c(OC)c(OC)c2)OC(c2cc(OC)c(OC)c(OC)c2)C1 (stereo not given) | – | 70.8 µM | – | – | – | – | – | 36.9 µM | – | 75.2 µM | – | 51.1 µM | – | 71 µM | – | > 100 µM | – | > 100 µM | > 100 µM | – |
| COc1ccc(C(=O)C(CN(C)C)c2ccccc2)cc1 (stereo not given) | 1.62 µM | 3.01 µM | – | – | 14.1 µM | 34.1 µM | 1.73 µM | 3.8 µM | 1.32 µM | 3.1 µM | 12.6 µM | 32.4 µM | 27.7 µM | 77.2 µM | 11.1 µM | 23.1 µM | 0.496 µM | 1.57 µM | 11.9 µM | 1.84 µM |
| NC(=O)COc1ccc(Br)cc1Br | – | > 100 µM | – | – | – | > 100 µM | – | – | – | – | – | > 100 µM | – | > 100 µM | – | > 100 µM | – | > 100 µM | – | – |
| N#CC(N)(C(=O)C(=O)NCCCNC(=O)C(=O)C(N)(C#N)c1ccc(Cl)cc1)c1ccc(Cl)cc1 (stereo not given) | – | > 100 µM | – | – | – | > 100 µM | – | > 100 µM | – | > 100 µM | – | > 100 µM | – | > 100 µM | – | > 100 µM | – | > 100 µM | > 100 µM | – |
